Our source for the Activity, IC50 and MIC values is ChEMBL document CHEMBL5230084, “Indole-based derivatives as potential antibacterial activity against methicillin-resistance Staphylococcus aureus (MRSA)” (Eur J Med Chem, 2020).

Each structure is given as a SMILES string. In brackets after ≈: the same amount, converted by molar mass.

Data set [1] deals with Staphylococcus aureus. Briefly: Antibacterial activity against methicillin-resistant Staphylococcus aureus 4N216 infected in mouse assessed as endurance rate at 20 mg/kg, iv relative to control. Type of data set: functional.
Data set [2] is described as follows: Cytotoxicity against human MKN-28 cells assessed as inhibition of cell growth. Type of data set: toxicity, cell-based.
The test system of data set [3] is Staphylococcus aureus. The experiment in a line: Antibacterial activity against methicillin-resistant Staphylococcus aureus. Format: functional.
A short description of data set [4]: Cytotoxicity against human HepG2 cells assessed as inhibition of cell growth. Format: toxicity, cell-based.
The nature of data set [5]: Cytotoxicity against human HKC-8 cells assessed as inhibition of cell growth. Type of data set: toxicity, cell-based.
The test system of data set [6] is Staphylococcus aureus. Briefly: Antibacterial activity against Staphylococcus aureus ATCC 25923 assessed as inhibition of bacterial growth by agar well diffusion method. Format: functional. In general terms: In agar diffusion tests the substance spreads into inoculated agar from a disc or well.
The test system of data set [7] is Staphylococcus aureus. Briefly: Antibacterial activity against Staphylococcus aureus assessed as inhibition of bacterial growth. Type of data set: functional.
A short description of data set [8]: Cytotoxicity against human HeLa cells assessed as inhibition of cell growth. Type of data set: toxicity, cell-based.
Data set [9] is described as follows: Cytotoxicity against human PC-3 cells assessed as inhibition of cell growth. Format: toxicity, cell-based.
A short description of data set [10]: Cytotoxicity against human A549 cells assessed as inhibition of cell growth. Format: toxicity, cell-based.
Data set [11] relates to Staphylococcus aureus. The experiment in a line: Antibacterial activity methicillin-resistant Staphylococcus aureus MTCC-96 assessed as inhibition of bacterial growth incubated for 16 to 24 hrs by broth microdilution assay. Type of data set: functional. To be noted: time 16-24 hrs.
The subject of data set [12] is Staphylococcus aureus. The experiment in a line: Antibacterial activity methicillin-resistant Staphylococcus aureus ST-3151 assessed as inhibition of bacterial growth incubated for 16 to 24 hrs by broth microdilution assay. Type of data set: functional. To be noted: time 16-24 hrs. A general note: In broth dilution the organism is exposed to a series of concentrations in liquid medium.

The subject of data set [13] is Staphylococcus aureus. The experiment in a line: Antibacterial activity methicillin-resistant Staphylococcus aureus ST-2071 assessed as inhibition of bacterial growth incubated for 16 to 24 hrs by broth microdilution assay. Format: functional. To be noted: time 16-24 hrs.
Data set [14] deals with Staphylococcus aureus. Briefly: Antibacterial activity methicillin-resistant Staphylococcus aureus ST-10342 assessed as inhibition of bacterial growth incubated for 16 to 24 hrs by broth microdilution assay. Format: functional. Conditions: time 16-24 hrs.
Data set [15] concerns Staphylococcus aureus. The experiment in a line: Antibacterial activity methicillin-resistant Staphylococcus aureus P-8029 assessed as inhibition of bacterial growth incubated for 16 to 24 hrs by broth microdilution assay. Format: functional. To be noted: time 16-24 hrs.
The test system of data set [16] is Staphylococcus aureus. The experiment in a line: Antibacterial activity methicillin-resistant Staphylococcus aureus ST-2438 assessed as inhibition of bacterial growth incubated for 16 to 24 hrs by broth microdilution assay. Format: functional. Conditions: time 16-24 hrs.
Data set [17] concerns Staphylococcus aureus. Briefly: Antibacterial activity methicillin-resistant Staphylococcus aureus B-10732 assessed as inhibition of bacterial growth incubated for 16 to 24 hrs by broth microdilution assay. Type of data set: functional. Conditions: time 16-24 hrs.
For data set [18], the system named is Staphylococcus aureus. Briefly: Antibacterial activity methicillin-resistant Staphylococcus aureus ST-5457 assessed as inhibition of bacterial growth incubated for 16 to 24 hrs by broth microdilution assay. Type of data set: functional. To be noted: time 16-24 hrs.
Data set [19] concerns Staphylococcus aureus. The experiment in a line: Antibacterial activity methicillin-resistant Staphylococcus aureus B-10760 assessed as inhibition of bacterial growth incubated for 16 to 24 hrs by broth microdilution assay. Format: functional. To be noted: time 16-24 hrs.
Data set [20] has as its system Staphylococcus aureus. The experiment in a line: Antibacterial activity methicillin-resistant Staphylococcus aureus ST-1745 assessed as inhibition of bacterial growth incubated for 16 to 24 hrs by broth microdilution assay. Format: functional. Conditions: time 16-24 hrs.
Data set [21] concerns Staphylococcus aureus. Briefly: Antibacterial activity methicillin-resistant Staphylococcus aureus P-6642 assessed as inhibition of bacterial growth incubated for 16 to 24 hrs by broth microdilution assay. Type of data set: functional. Conditions: time 16-24 hrs.

As for `Cl.OC(CNCCc1c[nH]c2cc(F)ccc12)Cn1c2ccc(Cl)cc2c2cc(Cl)ccc21` (configuration not stated), the Activity in data set [1] is recorded as 75%.
A word on the IC50: it is the concentration that gives 50% inhibition. The MIC is the lowest concentration found to suppress growth. Consider `S=C=NCCn1ccc2ccccc21`, for which the IC50 in data set [2], in data set [4] and in data set [5] was 2 µg/mL (≈ 9.89 µM) each time. The compound also gave an MIC in data set [3] of 8 µg/mL (≈ 39.5 µM).
`O=C(O)c1cn(C2CC2)c2cc(N3CCNCC3)c(F)cc2c1=O` [CIPROFLOXACIN]: the values for the MIC in data set [6] and in data set [7] were 0.3 µg/mL (≈ 0.905 µM) and 20 µg/mL (≈ 60.4 µM), respectively.
With `O=[N+]([O-])c1ccc(C(c2c[nH]c3ccc(Br)cc23)c2c[nH]c3ccc(Br)cc23)cc1`, the IC50 in [8] is 2.7 µM; in data set [9], 3.9 µM; in [10], 4.5 µM. In addition, in data set [3], the MIC came to 1 µg/mL (≈ 1.9 µM).
In the case of `O=C(/C=C/c1c[nH]c2ccccc12)c1cccc(OCc2ccccc2)c1`, the MIC in data set [11], in [12], in data set [13], in data set [14], in data set [15] and in data set [16] was 12.5 µg/mL (≈ 35.4 µM) throughout. The MIC in data set [17], in data set [18], in data set [19], in data set [20] and in [21] was 12.5 µg/mL (≈ 35.4 µM) throughout.
